Assay results from US20130197073A1, “HYPOCHOLESTEROLEMIC, ANTI-INFLAMMATORY AND ANTIEPILEPTIC NEUROPROTECTIVE COMPOUND” (NEURON BIOPHARMA, S.A., priority 2010, published 2013).

Experiments:
caspase 3/7 = assay: Inhibition of activation of caspase 3/7 in camptothecin cell model of apoptosis; format: cell-based, human; details: 50 μM, positive control; 50 μM CPT 6 hours
Description: (§1) The assay was performed on human neuroblastoma SK-N-MC cells in culture, maintained as described in section 2.1.
The induction of apoptosis on the cells in culture was performed with camptothecin (CPT), which triggers the activation of cell apoptosis. Apoptosis was quantified by means of the measurement of the activation of effector caspases, caspase 3 or caspase 7, for which a kit for the fluorometric detection of active caspase 3/7 (Apo-ONE® Homogeneous Caspase-3/7, Promega) was used. Active caspases 3 or 7 of the cells cause the rupture of a substrate, which leads to fluorescence emission, which is read by means of a fluorometer. The effect of the pretreatment of compound NST0060 at 10 and 40 μM on the activation of caspase 3/7 produced by 50 μM of camptothecin (CPT) in the SK-N-MC cells was thus analyzed. These cells, not exceeding 15 passages, were seeded on 96-well plates treated for adherent cells with a cell concentration of 5×10^4 cells/well; 3 wells of the plate were seeded for each assay condition.
After 24 hours of cell incubation (at 37° C. and 5% CO2), the pretreatment with NST0060 at 10 and 40 μM was performed.
The cells were incubated (at 37° C. and 5% CO2) with these treatments for 6 hours, after which cell lysis buffer and the caspase substrate at the concentrations specified by the manufacturer were added; it was incubated at room temperature for 30 minutes and then frozen at −20° C. overnight. Fluorescence was measured the next day (499/521 nm, Exci/Emi).

[1] = test system: human neuroblastoma SK-N-MC cells; assay: Inhibition of DNA fragmentation (sub-G1, flow cytometry) in camptothecin cell model of apoptosis; format: cell-based; details: 50 μM, positive control; 50 μM CPT
Description: as §1
The inhibition caused by compound NST0060 with respect to apoptosis caused by treatment with camptothecin (CPT), which inhibits the topoisomerase I enzyme, prevents DNA duplication and triggers apoptotic cell death. These cells, not exceeding 15 passages, were seeded on 6-well plates treated for adherent cells with a cell concentration of 7×10^5 cells/well; 2 wells of the plate were seeded for each assay condition.
After 24 hours of cell incubation (at 37° C. and 5% CO2), cell pretreatment was performed with 10 and 40 μM of NST0060 for 24 hours; they were subsequently treated with 50 μM CPT for 6 hours. Furthermore, Z-VAD-fmk at 50 μM was used as positive control for inhibition.
After treatment, the cells were collected along with their culture medium and centrifuged at 300×g for 5 minutes. The medium was removed, a washing was performed with PBS and the cells were fixed for 2 minutes with 500 μl of 70% ethanol at −20° C. […] After this time they were analyzed by flow cytometry, comparing the fluorescence of propidium iodide with respect to the amount of DNA. The percentage of apoptosis was measured on the sub-G1 region of each of the conditions.

[2] = test system: zebrafish (Danio rerio, AB strain) embryos; assay: Zebrafish embryo cardiotoxicity, heart rate; details: 72 hpt
[3] = test system: zebrafish (Danio rerio, AB strain) embryos; assay: Zebrafish embryo acute toxicity, mortality (OECD C.15); format: in vivo; details: for Mortality (dead larvae with respect to the total): 3 days
Description: 30 control animals treated with dilution water and with daily replacement until the end of the assay.
30 animals treated with compound NST0060 (3 embryos for every ten replicates) diluted in dilution water at doses between 1 and 100 mg/Kg and with daily replacement of the substance during the days that the assay lasted.
After the time of exposure to the substances under study, the mortality record of the larvae was determined, results being shown in Table 2.

[4] = test system: zebrafish (Danio rerio, AB strain) embryos; assay: Zebrafish embryo acute toxicity, percentage of healthy larvae; details: mean±SD

Molecule: Z-VAD-fmk [reference compound]
- inhibition of the activation of caspase 3/7 (caspase 3/7): completely inhibited
- inhibition of apoptosis (DNA fragmentation) caused by CPT [1]: specifically inhibited apoptosis caused by CPT

Molecule: CCC(C)(C)C(=O)O[C@H]1C[C@@H](C)C=C2C=C[C@H](C)[C@H](CC[C@@H]3C[C@@H](O)CC(=O)O3)[C@H]21 [simvastatin, reference compound]
- heart rate with respect to the controls ([2]; dose of 3 mg/Kg): significant decrease of the heart rate
- heart rate with respect to the controls ([2]; dose of 10 mg/Kg): significant decrease of the heart rate
- Mortality (dead larvae with respect to the total) ([3]; Dose 1 mg/kg): 0/30
- Mortality (dead larvae with respect to the total) ([3]; Dose 3 mg/kg): 0/30
- Mortality (dead larvae with respect to the total) ([3]; Dose 10 mg/kg): 16/30
- Mortality (dead larvae with respect to the total) ([3]; Dose 30 mg/kg): 30/30
- Mortality (dead larvae with respect to the total) ([3]; Dose 100 mg/kg): 30/30
- deaths out of 30 animals ([3]; dose of 10 mg/Kg, 72 h): 16
- percentage of healthy larvae ([4]; dose of 1 mg/Kg): 50.0±22.4%
- percentage of healthy larvae ([4]; dose of 3 mg/Kg): 50.0±22.4%
